#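 Results reflect a 48-hour exposure of cells in 96-well plates to compound at five concentrations. The concentration for 50% growth inhibition is given as GI50.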 Active and inactive are the calls of the source. Cut-off read from the data, not from the text of the source: active = GI50 up to about 1.1 µM and inactive = higher.
# What was measured:
# Assay in all cases: NCI tumour cell line growth inhibition, 48 h
# RXF 631 = test system: RXF 631
# LXFL 529 = test system: LXFL 529
# DLD-1 = test system: DLD-1
# XF498 = test system: XF498
# SNB-78 = test system: SNB-78
# DMS-114 = test system: DMS-114
# M19-MEL = test system: M19-MEL
# DMS-273 = test system: DMS-273
# HOP-18 = test system: HOP-18
SMILES,GI50 (RXF 631),GI50 (LXFL 529),GI50 (DLD-1),GI50 (XF498),GI50 (SNB-78),GI50 (DMS-114),GI50 (M19-MEL),GI50 (DMS-273),GI50 (HOP-18)
CCOC(=O)[C@H]1Nc2ccc(OC)cc2C2c3ccccc3CC21 (stereo partly specified),> 100 µM (inactive),> 100 µM (inactive),> 100 µM (inactive),> 100 µM (inactive),> 100 µM (inactive),> 100 µM (inactive),> 100 µM (inactive),> 100 µM (inactive),–
CCOC(=O)C1=C(C)N(NC(=O)Nc2ccccc2)C2(N)N(NC(=O)Nc3ccccc3)C(C)=C(C(=O)OCC)C12C#N (stereo unspecified),–,18.6 µM (inactive),19.4 µM (inactive),–,19.4 µM (inactive),16.1 µM (inactive),17.8 µM (inactive),17 µM (inactive),16.3 µM (inactive)
Cc1nc2nnc(C)n2c2c1C(=O)Nc1ccccc1N2,–,> 100 µM (inactive),> 100 µM (inactive),> 100 µM (inactive),> 100 µM (inactive),> 100 µM (inactive),> 100 µM (inactive),> 100 µM (inactive),> 100 µM (inactive)
Cc1cc2c(c(C(N)=O)c1C)-c1cc(Cl)cc(Cl)c1C2=O,–,> 100 µM (inactive),> 100 µM (inactive),–,41.3 µM (inactive),> 100 µM (inactive),> 100 µM (inactive),> 100 µM (inactive),> 100 µM (inactive)
CC[C@@]1(OC(=O)CCC(=O)O)C(=O)OCc2c1cc1n(c2=O)Cc2cc3ccccc3nc2-1,0.427 µM (active),2.01 µM (inactive),1.58 µM (inactive),0.497 µM (active),2.77 µM (inactive),0.046 µM (active),0.239 µM (active),< 0.0203 µM (active),0.492 µM (active)
C/C(CC(=O)Nc1ccc(C)c(C)c1)=N\NC(N)=O,–,> 100 µM (inactive),> 100 µM (inactive),–,> 100 µM (inactive),> 100 µM (inactive),> 100 µM (inactive),–,–
CC1=NN(C(=O)c2ccncc2)C(=O)C1/N=N/c1ccc(F)cc1 (stereo unspecified),–,> 100 µM (inactive),> 100 µM (inactive),> 100 µM (inactive),63.1 µM (inactive),> 100 µM (inactive),> 100 µM (inactive),92.5 µM (inactive),–
CN(C)CCSc1nccc(-c2cc3ccccc3s2)n1,–,16.8 µM (inactive),32.6 µM (inactive),–,16.3 µM (inactive),23.2 µM (inactive),–,15.9 µM (inactive),< 0.01 µM (active)
CNS(=O)(=O)NNS(=O)(=O)c1cccc([N+](=O)[O-])c1,–,> 100 µM (inactive),> 100 µM (inactive),–,–,> 100 µM (inactive),> 100 µM (inactive),> 100 µM (inactive),–
C/C(=N\NC(=N)N)C(CN1CCOCC1)C(c1ccccc1)c1c(O)c2ccccc2oc1=O (stereo unspecified),–,> 100 µM (inactive),> 100 µM (inactive),> 100 µM (inactive),50.8 µM (inactive),45.8 µM (inactive),> 100 µM (inactive),> 100 µM (inactive),> 100 µM (inactive)
N#CC1=C(N)Oc2c(ccc3cccnc23)C1c1ccccc1 (stereo unspecified),–,1.7 µM (inactive),2.3 µM (inactive),7.98 µM (inactive),1.45 µM (inactive),0.914 µM (active),1.67 µM (inactive),0.445 µM (active),> 100 µM (inactive)
Cc1ccc(/C=C/C(=O)c2sc(-c3cccnc3)nc2C)cc1,> 100 µM (inactive),–,> 100 µM (inactive),–,> 100 µM (inactive),–,> 100 µM (inactive),> 100 µM (inactive),> 100 µM (inactive)
COc1ccc(/C=N/NC(=O)NCCNCCO)cc1,–,> 100 µM (inactive),> 100 µM (inactive),–,> 100 µM (inactive),> 100 µM (inactive),> 100 µM (inactive),> 100 µM (inactive),> 100 µM (inactive)
